Results taken from PMC4515242, “ESR and X-ray Structure Investigations on the Binding and Mechanism of Inhibition of the Native State of Myeloperoxidase with Low Molecular Weight Fragments” (Applied Magnetic Resonance, 2015).

How the values were obtained:
[1] = target: T1, Human Myeloperoxidase (Homo sapiens, UniProt P05164); assay: X-ray co-crystal growth by soaking MPO crystals with inhibitor; details: crystals soaked with 50 mM inhibitor
T1 construct: purchased Lee Biosciences 426-10
T1 sequence (P05164 49-745): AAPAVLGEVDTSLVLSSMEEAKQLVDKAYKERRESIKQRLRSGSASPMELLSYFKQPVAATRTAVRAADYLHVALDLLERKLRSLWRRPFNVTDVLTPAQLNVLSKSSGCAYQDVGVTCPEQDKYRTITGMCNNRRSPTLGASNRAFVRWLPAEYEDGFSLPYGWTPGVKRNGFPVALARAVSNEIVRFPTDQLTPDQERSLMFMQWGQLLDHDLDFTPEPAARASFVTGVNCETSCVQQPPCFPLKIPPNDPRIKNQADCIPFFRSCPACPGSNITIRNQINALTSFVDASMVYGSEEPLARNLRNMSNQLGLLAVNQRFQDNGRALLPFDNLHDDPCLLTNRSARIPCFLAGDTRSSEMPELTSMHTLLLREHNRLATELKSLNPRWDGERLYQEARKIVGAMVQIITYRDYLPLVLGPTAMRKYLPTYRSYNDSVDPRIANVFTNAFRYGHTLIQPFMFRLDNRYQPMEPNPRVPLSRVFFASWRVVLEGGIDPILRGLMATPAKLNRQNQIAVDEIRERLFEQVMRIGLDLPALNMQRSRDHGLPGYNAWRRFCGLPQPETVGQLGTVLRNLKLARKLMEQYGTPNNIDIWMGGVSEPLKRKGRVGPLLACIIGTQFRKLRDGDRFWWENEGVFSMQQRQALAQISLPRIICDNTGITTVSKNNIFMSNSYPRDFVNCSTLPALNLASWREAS
Method: Human Myeloperoxidase and co-crystals of MPO were crystallized and analyzed using methods similar to those described by Davey and Fenna. Briefly, hanging drops of 25 mg/mL MPO, 25 mM sodium acetate pH 5.0, 50 mM NaCl, 50 mM ammonium sulfate, 2 mM calcium chloride, and 3-10 % polyethylene glycol 8000 were set up at 21 °C over reservoir solutions containing 300 mM sodium chloride. Crystals of the space group P21 and having two MPO subunits per asymmetric unit grew with the aid of micro-seeding as very thin plates having a brownish orange tinge. Crystals were soaked with inhibitor compounds at a concentration of 50 mM, in a stabilizing buffer containing 18 % polyethylene glycol 8000, 56 mM ammonium sulfate, 2.2 mM calcium acetate, and 56 mM HEPES pH 7.0. Co-crystals were cryo-protected in a stabilizing buffer containing 22.2 % methylpentanediol prior to flash cooling in liquid nitrogen.
Diffraction data were collected at 100 K using Synchrotron beam line 31ID at the Advanced Photon Source (Argonne National Laboratory) and were integrated using MOSFLM v.6.2.6 [18]. […] Inhibitor binding to the MPO heme group was indicated by appropriately shaped peaks in the Fo–Fc electron density maps. The inhibitor was included in the model, and iterative cycles of manual model building with COOT [20] and restrained refinement with REFMAC v5.2.0019 [21] were used to complete the overall structure. Figures of the crystal structure were generated using PYMOL (www.pymol.org). […] The higher B-factors for the inhibitor molecules could be attributed to inhibitor occupancies of less than 1.0 or to higher degrees of thermal motion associated with the inhibitors. Lower than expected electron density peak heights were also observed for the Cl atom in the inhibitors, which could be due to the radiation damage to this X-Ray sensitive group.

[2] = target: T2, hMPO (Homo sapiens, UniProt P05164); assay: Reversible binding assay (filtration and ESR after washing); details: bound complex washed with buffer, then ESR at 4 K
T2 construct: purchased Biodesign A31804H
T2 sequence (P05164 49-745): T1 sequence (P05164 49-745)
Method: We performed the following two assays for independently confirming the reversibility of binding. In the filtration method, hMPO stock (1.5 mg/ml) is diluted to 5 μg/ml with 20 mM phosphate buffer pH 7.4, 10 % glycerol (no gelatin). 120 μl of this solution is mixed with an equal volume of the compounds at a concentration of 30 μM (final concentration […]), followed by mixing in the plate and incubation for 15 min. at room temperature. 120 μl aliquot of this solution is transferred into separate YM30 Micron filter units and centrifuged 6 min at 9000 rpm, followed by the addition of 300 μl of the buffer and further centrifugation for 12 min. at 9000 rpm. Wash and centrifuge cycles are repeated 2 more times with 300 μl buffer, each followed by 12 min. centrifugation steps. The protein left on the membrane is mixed with the PB buffer to a final volume of 120 μl and subjected to Alpha screen method as described before to probe the nitration of Apo A1 peptide substrate which is taken as a confirmation of the restoration of the catalytic activity of the protein.
In the ESR protocol, the methodology of Hori et al. was applied with some modifications.The protocol followed is similar to the binding assay except that a higher concentration of hMPO (9.2 μM final) is used. This is necessary as multiple washings followed by dilutions lead to considerable loss of the enzyme due to its retention on the membrane. After 5 min of incubation in the eppendorf at room temperature, the contents were transferred to an Amicon Ultra-4 tube (5 ml capacity) and filled with 4 ml of 0.1 M sodium acetate buffer (containing 50 mM NaCl) pH 6.0. Using spin conditions of 4000×g in a swinging bucket rotor at 20 °C, the samples are washed repeatedly (2×) followed with a final wash containing 1 ml of the sodium acetate buffer (chloride free) + 25 % n-propanol and then concentrated. The concentrated solution ca. 300 μl is transferred to ESR quartz tubes and measured at 4 K. A higher concentration of MPO in these reversible binding assays enabled a good ESR signal over noise from the washed (3X) sample.

[3] = target: T2, hMPO; assay: Peroxidase inhibition assay: ESR of hMPO exposed to H2O2 with and without inhibitor; type: biochemical; details: inhibitor added before H2O2 (555 μM); inhibitor:MPO 40:1, in DMSO
Method: Hydrogen peroxide (30 %, v/v; 9.71 M) is used with different dilutions in ice-cold deionized water. MPO at 50 μl of 20.8 μM (4.6 μM final concentration) is incubated with different concentrations of H2O2 in the absence and in the presence of inhibitors (inhibitor to MPO concentration is 40:1) for 1 min and rapidly frozen at 77 K. The inhibitors are added to MPO, incubated for 5 min prior to H2O2 addition in these reactions.

Compound	X ray Cocrystal result [1]	reversibility of the binding [2]	prevention of peroxide-induced ESR changes (decay of g X and g Y, growth of g ~ 6) [3]
O=C(O)c1nn(-c2ccccc2)cc1O [LSN17948]	Yes	Reversible in its action	The spectrum is unchanged and no g intermediate signal is seen
O=C(O)c1n[nH]c(-c2ccccc2)c1O [LSN87637]	Yes	Reversible in its action	–
O=C(O)c1nn(-c2cccc3ccccc23)cc1O [LSN2944556]	Yes	Reversible in its action	–
